Measured values from patent US20070077583A1, “Alpha enolase-directed diagnostics and therapeutics for cancer and chemotherapeutic drug resistance” (Aurelium BioPharma, Inc., priority 2005, published 2007).
“Also recorded” adds a separate entry of the source.

Tests used:
MCF-7/ADR xenografts = MCF-7/ADR xenografts in nude mice; format: in vivo; details: 3 μg daily for 16 days, with chemotherapeutic drugs
Experimental: In further studies, the efficacy of a α-enolase-targeted therapeutic in treating an MDR mammary adenocarcinoma cells (MCF/AR) is assessed. Briefly, male […] nude mice 5-7 weeks old, weighing 18 g-22 g are used for the MCF-7/ADR xenografts. Mice receive a subcutaneous (s.c.) injection of the cells using 5×10^5 cells/inoculation under the shoulder. When the s.c. tumor is approximately 5.5 mm in size, mice are randomized into treatment groups of 4 including controls and groups receiving taxol or doxorubicin, alone (4 mg/kg), intraperitoneally (i.p.) every 2 days, α-enolase siRNA alone (3 μg daily for 16 days), or both taxol and α-enolase siRNA (3 μg daily for 16 days for each treatment). […] The animal's weight is measured every 4 days. Tumor growth starting on the first day of treatment is measured and the volume of the xenograft is monitored every 4 days. The mice are anaesthetized and sacrificed when the mean tumor weight is over 1 g in the control group. Tumor tissue is excised from the mice and its weight is measured. […]
In further studies, the efficacy of a α-enolase-targeted therapeutic in treating an mammary adenocarcinoma cells (MCF-7) is assessed. […] The animal's weight is measured every 4 days. Tumor growth starting on the first day of treatment is measured and the volume of the xenograft is monitored every 4 days. […] Tumor tissue is excised from the mice and its weight is measured. […]

A549 cells [1] = experiment: Cell adhesion assay on collagen-coated plates; format: cell-based, human; details: A549 cells vs normal α-enolase levels
Experimental: Cell adhesion assays were performed using an MTT-based cell assay, as described in FIGS. 8C and 8D. […] The attachment of cells to the surface of the well was counted and a proportion of cells that attached to the surface during the experimental period was determined.

MCF-7 cells = experiment: Annexin-V apoptosis assay, MCF-7; format: cell-based, human; details: MCF-7 cells vs control siRNA
Experimental: Apoptotic cells were measured following incubation with siRNAs. This assay was performed to determine the number of cells that were now susceptible to chemotherapeutic drugs. Cells transfected with siRNA were seeded in Lab-Tek 16-well chamber slides (Electron Microscopy Sciences, Hatfield, Pa.) at 10^4 cells/well 48 hrs post-transfection. Apoptosis was determined 16 hours later by annexin-V staining using the Annexin-V FLUOS kit (Roche, Ltd., Basel, CH) following the manufacturer's instructions. Slides were observed under a fluorescence microscope and images were taken using an Olympus digital camera and the Q-Capture software (QImaging, Burnaby, BC, CA).

HUVEC cells = experiment: HUVEC capillary tube formation on Matrigel; format: cell-based
Experimental: Transfected cells were then subjected to an angiogenesis assay to determine the effect of α-enolase on capillary tube formation. Briefly, Matrigel-coated 24-well culture plates (BD Biosciences, Rockville, Md.) were thawed at 4° C. overnight. The Matrigel was allowed to solidify for 1 hr at 37° C. α-enolase-1-directed siRNA or control siRNA silenced HUVEC cells were subsequently seeded onto the Matrigel-coated wells at a density of 40,000 cells per well in the absence of endothelial cell growth factors. Taxol was added to selected wells at 2 nM final concentration. The cells were allowed to differentiate overnight at 37° C., and were photographed after 5-6 and 16 hours using Q-Capture software under an Olympus fluorescence microscope.

A549 cells [2] = experiment: Transwell filter cell invasion assay, A549; format: cell-based, human
Experimental: Transwell filter chamber assays were performed using a Chemicon QCM 96-well invasion kit according to the manufacturer's instructions (Chemicon International, Inc., Temecula, Calif.). Eno-1 and control siRNA transfected cells were harvested 2 days post-transfection, resuspended in media without serum and seeded in 96-well Matrigel-coated transwell filter plates at 50,000 cells per well. Medium with 10% serum was used as a chemo-attractant in a feeder tray. The inserts were placed into the feeder tray, and the cells were subsequently incubated for 16 hours at 37° C. in an incubator containing a 5% CO2 atmosphere. Cells that invaded through the filter to the bottom tray were quantitated using the CyQUANT-GR dye according to the manufacturer's instructions (Molecular Probes, Eugene, Oreg.).
These assays test the ability of a cell to move across membranes, which is a hallmark of metastatic potential. To confirm the results shown in FIGS. 27A and 27B, the highly metastatic cell line MDA-MB-435 was transfected with a vector expressing the α-enolase siRNA and subjected to the transwell filter assay (FIGS. 28 and 29, respectively).

With “α-enolase siRNA: siRNA duplex targeting human α-enolase mRNA; sense 5′-GGCUGUUGAGCACAUCAAUtt-3′ (SEQ ID NO: 1), antisense SEQ ID NO: 2; Ambion (antisense AUUGAUGUGCUCAACAGCC; bought from Ambion, sense has tt overhang, further chemistry not given here)” the “total cell number in tumors vs control siRNA” value (MCF-7/ADR xenografts) was “lower”, the “tumor weight vs control siRNA” value (MCF-7/ADR xenografts) was “smaller tumors by weight” and the “increase of cell adhesion to collagen-coated plates” value (A549 cells [1]) was 40%. For the same substance, the “Annexin-V positive cells” value (MCF-7 cells) was “Annexin-V positive cells were detected; also recorded: substantial amount of Annexin-V-positive cells”, the “capillary tube formation on Matrigel” value (HUVEC cells) was “inhibited from forming capillary tubes” and the “invasion across membranes” value (A549 cells [2]) was “reduced the invasion”.
